{"source": "patent US7166612B2", "about": "“Methods for reducing platelet activation platelet aggregaton or thrombosis” (Beth Israel Deaconess Medical Center, priority 2001, dated 2007)", "key": {"[1]": {"tested_on": "PGE1-induced cAMP levels in platelets", "assay": "augmentation of PGE1-induced cAMP levels in platelets", "type": "cell-based, human", "conditions": "in words", "procedure": "(A) Compound was tested for its ability to inhibit SFLLR-, U46619-, ADP-, PMA-, and collagen I-induced platelet α-granule secretion. (B) The effect of the compound on PGE1-stimulated cAMP elevation was analyzed. Platelets were incubated with increasing doses of pyridazinone compound for 30 minutes prior to the 2 minute incubation with PGE1. Platelets were subsequently lysed and cAMP level was assayed using a commercially available ELISA kit (Liao et al., 1998, Eur J Pharmacol 349, 107–14). […] Error bars represent mean ±1 SD (n=4), *P<0.001.\nOne frequent target of anti-platelet agents is phosphodiesterase III (PDE III). […] The assay is performed as described by Liao et al., 1998, Eur J Pharmacol 349,107–114, incorporated herein by reference. Briefly, aliquots of PRP are exposed to increasing concentrations of the agent for 20 minutes. The PRP is then challenged with 1 μM PGE1 for 2 min The reaction is stopped by adding 10 mM EDTA, followed immediately by boiling for 2 min. The mixture is cooled to 4° C. and the precipitated protein is pelleted. cAMP content in the supernatant is quantitated using an enzyme immunoassay kit (Pharmacia-Amersham, NJ) according to the instructions of the manufacturer.\nIn order to assess whether the compounds useful according to the invention might act through inhibition phosphodiesterase III, each was tested for its effect on PGE1-induced cAMP increase. Determination of platelet cAMP levels was performed as described by Liao et al., 1998, supra. Aliquots of PRP were exposed to increasing concentrations of the indicated compounds for 20 min. PRP was then challenged with 1 μM PGE1 for 2 min. The reaction was stopped with the addition of 10 mM EDTA followed immediately by boiling for 2 min. The mixture was then cooled to 4° C. and the precipitated protein was pelleted. Cyclic AMP content in the supernatant was then quantified using an enzyme immunoassay kit (Pharmacia-Amersham, NJ) according to the instructions of the manufacturer."}, "[2]": {"tested_on": "platelets", "assay": "platelet aggregation (aggregometer)", "type": "cell-based, human", "conditions": "in words", "procedure": "Platelet aggregation profiling is a standard methodology, generally performed with an instrument adapted for that express purpose, for example, a Platelet Aggregation Profiler (BioData, Horsham, Pa.). The assays can generally be performed according to the instructions of the manufacturer. As exemplary conditions, 400 μl of PRP are incubated with inhibitor for 15 minutes at room temperature. The sample is then incubated for 3 minutes at 37° C. in the Platelet Aggregation Profiler. The instrument is calibrated with platelet poor plasma serving as a blank. A baseline tracing is established by monitoring the light transmittance of PRP being stirred at 1200 rpm. Aggregation is initiated by the addition of SFLLR (200 μM) and the percent of platelet aggregation is measured by the change in light transmittance for 6 minutes following addition of SFLLR."}, "[3]": {"biological_target": "T1, human platelet PDE3 (Homo sapiens, UniProt Q14432)", "T1 construct": "from tissue; host or cells: human platelets", "T1 sequence (Q14432 whole entry)": "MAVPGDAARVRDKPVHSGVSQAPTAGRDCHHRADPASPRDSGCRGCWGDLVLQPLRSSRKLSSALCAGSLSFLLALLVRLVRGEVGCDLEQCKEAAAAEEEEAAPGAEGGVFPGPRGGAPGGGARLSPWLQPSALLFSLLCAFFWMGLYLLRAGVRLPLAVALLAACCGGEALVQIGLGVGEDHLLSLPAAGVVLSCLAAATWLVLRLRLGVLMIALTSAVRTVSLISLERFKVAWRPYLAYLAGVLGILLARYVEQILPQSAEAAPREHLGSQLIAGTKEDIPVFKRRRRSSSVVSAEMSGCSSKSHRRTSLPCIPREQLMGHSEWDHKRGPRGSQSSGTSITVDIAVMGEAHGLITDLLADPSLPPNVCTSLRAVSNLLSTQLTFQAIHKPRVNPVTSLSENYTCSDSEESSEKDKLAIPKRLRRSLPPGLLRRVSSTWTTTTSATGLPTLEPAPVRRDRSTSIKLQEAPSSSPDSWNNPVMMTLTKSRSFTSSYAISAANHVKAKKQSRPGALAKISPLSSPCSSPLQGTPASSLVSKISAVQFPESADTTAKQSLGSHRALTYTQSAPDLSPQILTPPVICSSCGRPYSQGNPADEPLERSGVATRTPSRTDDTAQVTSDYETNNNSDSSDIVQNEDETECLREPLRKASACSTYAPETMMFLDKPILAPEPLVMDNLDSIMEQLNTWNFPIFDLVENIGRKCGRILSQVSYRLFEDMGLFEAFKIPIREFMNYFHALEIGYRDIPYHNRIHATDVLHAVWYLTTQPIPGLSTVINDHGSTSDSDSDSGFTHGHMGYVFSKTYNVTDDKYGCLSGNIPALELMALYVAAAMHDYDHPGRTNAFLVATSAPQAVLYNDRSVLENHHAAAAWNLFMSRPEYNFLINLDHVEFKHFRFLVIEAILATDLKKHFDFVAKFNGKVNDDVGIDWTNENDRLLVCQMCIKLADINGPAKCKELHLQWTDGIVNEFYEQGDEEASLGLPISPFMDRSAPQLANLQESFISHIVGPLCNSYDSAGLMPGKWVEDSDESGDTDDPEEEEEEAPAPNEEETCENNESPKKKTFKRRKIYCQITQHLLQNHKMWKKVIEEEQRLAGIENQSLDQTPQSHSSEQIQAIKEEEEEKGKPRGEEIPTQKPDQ", "assay": "phosphodiesterase inhibition, PDE3", "type": "biochemical", "procedure": "Intracellular cAMP generated by adenylyl cyclase in platelets is actively hydrolyzed by phosphodiesterase. […] Human platelets express PDE2, PDE3, and PDE5. Therefore, the compound was tested for its inhibitory effect on these phosphodiesterases using methods as described in Example 3."}, "[4]": {"tested_on": "laser-induced thrombi in cremaster arterioles", "type": "in vivo", "excerpt": "A preferred animal model involves intravital microscopy of laser-induced thrombi. The method is described by Rosen et al., 2001, Am J Pathol 158, 1613–1622, which is incorporated herein by reference. Minor variations of that method were employed as described below.\nExperimental mice are pre-anesthetized and surgically prepared. A tracheal tube is placed to facilitate breathing and the jugular vein is canulated to allow for maintenance of anesthetic and introduction of compound. The cremaster muscle is then exteriorized. The muscle is affixed over a glass slide, allowing illumination from below. A steady drip of a sodium-bicarbonate buffered salt solution is maintained throughout the experiment to keep the exposed muscle moist. Blood flow in the muscle is visualized using a 40× water immersion lens and epi-illuminated with an appropriately filtered light source. Alexa 488-labeled anti-mouse CD41 antibody is injected through the jugular canulus to label platelets in vivo.\nThrombosis is initiated by damaging the vessel wall (of a 30 μm vessel) with a laser pulse from a MicroPoint LASER attached to the microscope. A LASER pulse is delivered, causing damage in an area smaller than 1 μm. The recruitment of platelets to the thrombus is then monitored by the accumulation of (activated) Alexa 488-labeled platelets at the ablation site using fluorescence microscopy, and the process is recorded digitally. The method thus permits in vivo analysis of platelet activation as measured by platelet aggregation and thrombosis.\nThe degree of embolization in an untreated mouse can be quantified using software for image analysis, e.g., BioQuant True Color Windows (Biometrics, Nashville, Tenn.), as described in Rosen et al., 2001, supra. The software package permits the determination of the “integrated optical density” or IOD of the thrombus.\nUsing quantitative intravital fluorescence videomicroscopy with high temporal resolution (111 images/second), the effect of PDE3 inhibition on the platelet recruitment into thrombi was directly observed over time. Platelets were fluorescently labeled by infusing rat-anti-mouse CD41 and Alexa 488-anti-rat IgG through a cannulated jugular vein. The cremaster microvasculature was exposed and mapped and suitable arteriole segments were selected for laser-induced injury. A series of control injuries were generated prior to infusion of the inhibitory compound. The power and the number of laser pulses required to generate each thrombus was recorded. Platelet accumulation to the thrombi following laser ablation was recorded using digital videomicroscopy. The thrombus total fluorescence in each frame of the videos was analyzed using Slidebook software for digital videomicroscopy. The pyridazinone compound was then infused. Following a 15 minute incubation, a series of experimental injuries were generated 250 μm proximal, with relationship to blood flow, of the first injury and the resultant thrombi were recorded. The power and the number of pulses required to induce the control thrombus was used to induce the experimental thrombus. The control and experimental thrombi constituting a pair were compared for statistical analysis. The total fluorescence intensity of the thrombi before and after the infusion of pyridazinone compound was recorded.\nImages from a representative experiment of the recruitment of fluorescently-labeled […] platelets into a growing thrombus over time is shown in FIG. 9A."}}}
{"smiles": "CC1CC(=O)NN=C1c1ccc(N)c([N+](=O)[O-])c1", "note": "(stereo not shown) [6-(4-Amino-3-nitro-phenyl)-5-methyl-4,5-dihydro-2H-pyridazin-3-one]", "values": [{"measurement": "effect on PGE1-stimulated cAMP levels in platelets", "setting": "[1]", "value": "augments PGE1-induced cAMP levels in a dose-dependent manner"}, {"measurement": "effect on PGE1-stimulated cAMP levels in platelets", "setting": "[1]; listed as Pyridazinone compound", "value": "augment PGE1-induced cAMP level increase in platelets in a dose-dependent manner"}, {"measurement": "inhibition of SFLLR-induced platelet aggregation", "setting": "[2]", "value": "potent inhibitor"}, {"measurement": "IC50", "setting": "[3]", "value": 15, "unit": "nM"}, {"measurement": "stabilized platelet accumulation", "setting": "[4]; 0.6 mg/kg (P<0.05) and 1.2 mg/kg (P<0.01), in words", "value": "dose-dependent inhibition"}, {"measurement": "maximum platelet accumulation compared to absence of compound", "setting": "[4]; 0.6 and 1.2 mg/kg, P<0.05, in words", "value": "statistically significant decrease"}, {"measurement": "time to achieve the maximum rate of platelet recruitment", "setting": "[4]; after laser injury, not affected by PDE3 inhibition, 0.3 and 1.2 mg/kg", "value": "approximately 27 seconds"}]}
